In patent US7192746B2, “α-Isomaltosyltransferase, process for producing the same and use thereof” (Kabushiki Kaisha Hayashibara Seibutsu Kagaku Kenkyujo, priority 2000, dated 2007):

What was measured:
[1] = Amino carbonyl reaction with glycine; format: physicochemical; details: 10% (w/v) with 1% (w/v) glycine, pH 7.0, 100° C.
Protocol: Four milliliter aliquots of the resulting solution were placed in glass test tubes, sealed, and heated at 100° C. for 30 to 90 min. After allowing to stand for cooling at ambient temperature, each of the resulting solutions was measured for coloration degree to examine their amino carbonyl reactivity. The coloration degree was evaluated based on the absorbance in a cell with 1-cm light pass at a wavelength of 480 nm.

[2] = Amino carbonyl reaction with polypeptone; format: physicochemical; details: 10% (w/v) with 5% (w/v) polypeptone, 120° C., minus control
Protocol: Four milliliter aliquots of the resulting solution were placed in glass test tubes, sealed, and heated at 120° C. for 30 to 90 min. After allowing to stand for cooling at ambient temperature, each of the resulting solution was measured for coloration degree to examine their amino carbonyl reactivity. In parallel, as a control, a solution with only polypeptone was provided and similarly treated as above. The coloration degree was evaluated based on the level of the absorbance, measured in a cell with 1-cm light pass at a wavelength of 480 nm, minus that of the control.

[3] = system: Bacteroides vulgatus JCM 5826 strain; test: Assimilation test; format: cell-based; details: PYF medium with 0.5% saccharide, 37° C., four days, anaerobic
[4] = system: Eubacterium aerofaciens ATCC 25986 strain; test: Assimilation test; format: cell-based; details: PYF medium with 0.5% saccharide, 37° C., four days, anaerobic
amylopsin = target: T1, amylopsin (Homo sapiens, UniProt P04746)
T1 sequence (P04746 16-511): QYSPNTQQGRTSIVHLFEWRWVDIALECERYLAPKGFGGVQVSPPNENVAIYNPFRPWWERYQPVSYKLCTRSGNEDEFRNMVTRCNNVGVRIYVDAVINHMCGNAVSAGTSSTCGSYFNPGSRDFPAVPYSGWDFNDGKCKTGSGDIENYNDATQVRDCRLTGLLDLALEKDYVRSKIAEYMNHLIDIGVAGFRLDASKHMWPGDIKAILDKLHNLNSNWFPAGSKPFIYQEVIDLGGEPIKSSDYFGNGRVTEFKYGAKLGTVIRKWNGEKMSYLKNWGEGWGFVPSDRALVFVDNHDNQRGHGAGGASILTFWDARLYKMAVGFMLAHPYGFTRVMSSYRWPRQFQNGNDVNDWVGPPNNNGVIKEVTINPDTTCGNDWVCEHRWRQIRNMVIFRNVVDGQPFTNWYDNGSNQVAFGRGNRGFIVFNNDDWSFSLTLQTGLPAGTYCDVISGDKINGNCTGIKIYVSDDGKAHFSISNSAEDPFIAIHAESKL

[5] = system: small intestinal mucosal enzyme
[6] = system: α-isomaltosyl-transferring enzyme from Arthrobacter globiformis A19; test: Action on saccharides (substrates, TLC); format: biochemical; design: key: −: there was found no substrate change before and after the enzymatic reaction; +: there were found both the reduction of substrate and the formation of cyclotetrasaccharide after the enzymatic reaction; details: partially purified enzyme, 2 units/g substrate, 2% (w/v) substrate, 30° C., pH 6.0, 24 hours
Method in brief: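 Each candidate saccharide, from malto- and isomalto-oligosaccharides to cyclodextrins, starch, pullulan and dextran, was prepared at 2% (w/v). Two units/g substrate of enzyme were added, then the mixture was held at pH 6.0, 30° C., 24 hours. Samples were then analysed by silica gel TLC.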

[7] = system: α-isomaltosyl-transferring enzyme from Arthrobacter ramosus S1; test: Action on saccharides (substrates, TLC); format: biochemical; design: key: −: there was found no substrate change before and after the enzymatic reaction; +: there were found both the reduction of substrate and the formation of cyclotetrasaccharide after the enzymatic reaction; details: 2 units/g substrate, 2% (w/v) substrate, 30° C., pH 6.0, 24 hours
Method in brief: (§1)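 Substrates 2% (w/v), enzyme 2 units/g substrate, pH 6.0, 30° C., 24 h. Read-out: silica TLC, n-butanol:pyridine:water 6:4:1; sulfuric acid-methanol (total sugar) and diphenylamine-aniline (reducing sugar) staining, pre- vs post-reaction.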

[8] = system: α-isomaltosyl-transferring enzyme from Bacillus globisporus C11; test: Action on saccharides (substrates, TLC); format: biochemical; design: key: −: there was found no substrate change before and after the enzymatic reaction; +: there were found both the reduction of substrate and the formation of cyclotetrasaccharide after the enzymatic reaction; details: 2 units/g substrate, 2% (w/v) substrate, 30° C., pH 6.0, 24 hours
Method in brief: as §1

[9] = system: α-isomaltosyl-transferring enzyme from Bacillus globisporus C9; test: Action on saccharides (substrates, TLC); format: biochemical; design: key: −: there was found no substrate change before and after the enzymatic reaction; +: there were found both the reduction of substrate and the formation of cyclotetrasaccharide after the enzymatic reaction; details: 2 units/g substrate, 2% (w/v) substrate, 30° C., pH 6.0, 24 hours
Method in brief: as §1

[10] = system: α-isomaltosyl-transferring enzyme from Bacillus globisporus N75; test: Action on saccharides (substrates, TLC); format: biochemical; design: key: −: there was found no substrate change before and after the enzymatic reaction; +: there were found both the reduction of substrate and the formation of cyclotetrasaccharide after the enzymatic reaction; details: 2 units/g substrate, 2% (w/v) substrate, 30° C., pH 6.0, 24 hours
Method in brief: as §1

Digestion test in vitro = details: Synthetic gastric juice

SMILES | Coloration degree (A480 nm) ([1]; heating time 0 min) | Coloration degree (A480 nm) ([1]; heating time 30 min) | Coloration degree (A480 nm) ([1]; heating time 60 min) | Coloration degree (A480 nm) ([1]; heating time 90 min) | Coloration degree (A480 nm) ([2]; heating time 0 min) | Coloration degree (A480 nm) ([2]; heating time 30 min) | Coloration degree (A480 nm) ([2]; heating time 60 min) | Coloration degree (A480 nm) ([2]; heating time 90 min) | Assimilability [3] | Assimilability [4] | Decomposition percentage by digestive enzyme (amylopsin) [%] | Decomposition percentage by digestive enzyme [5] [%] | Digestibility by intestinal mucosal enzyme relative to maltitol [5] | Enzymatic action for forming cyclotetrasaccharide, Enzyme of Strain A19 [6] | Enzymatic action for forming cyclotetrasaccharide, Enzyme of Strain S1 [7] | Enzymatic action for forming cyclotetrasaccharide, Enzyme of Strain C11 [8] | Enzymatic action for forming cyclotetrasaccharide, Enzyme of Strain C9 [9] | Enzymatic action for forming cyclotetrasaccharide, Enzyme of Strain N75 [10] | Decomposition percentage by digestive enzyme (Digestion test in vitro) [%]
OCC1OC2OCC3O[C@H](O[C@H]4C(O)C(CO)OC(OCC5O[C@H](O[C@@H](C1O)C2O)C(O)C(O)[C@@H]5O)C4O)C(O)C(O)[C@@H]3O (stereo partly drawn) [Cyclotetrasaccharide, cyclo{→6)-α-D-glucopyranosyl-(1→3)-α-D-glucopyranosyl-(1→6)-α-D-glucopyranosyl-(1→3)-α-D-glucopyranosyl-(1→}] | 0.00 | 0.00 | 0.00 | 0.00 | 0.00 | 0.00 | 0.00 | 0.00 | − (negative (−) when the post culture had a pH of 6.0 or higher) | − (negative (−) when the post culture had a pH of 6.0 or higher) | 0.0 | 0.74 | ⅕ |  |  |  |  |  | 
OC[C@@H](O)[C@@H](O[C@H]1O[C@H](CO)[C@@H](O)[C@H](O)[C@H]1O)[C@H](O)[C@@H](O)CO [Maltitol, maltitol] |  |  |  |  |  |  |  |  |  |  |  |  |  | − | − | − | − | − | 0.0
